Patent US20210330683A1, “COMPOSITIONS AND METHODS FOR ENHANCED DELIVERY OF ANTIVIRAL AGENTS” (POVIVA CORP., priority 2020, published 2021)

Assay: Plasma exposure (pharmacokinetics) of darunavir and efavirenz after oral administration of formulations
Conditions: for concentration at 1 h / concentration at 2 h: male, Sprague-Dawley, 10 mg/kg, average plasma concentration
Experimental: In this study, the exposure and distribution of darunavir and efavirenz were evaluated following oral administration in male Sprague-Dawley rats. Four cohorts of 10 rats each were used in this study. The first cohort involved darunavir using the disclosed formulations and the second cohort darunavir in a control formulation. The third cohort involved efavirenz using the disclosed formulations and the fourth cohort efavirenz in a control formulation.
Formulations were administered orally (PO) at 10 mg/kg of darunavir or efavirenz. Following dosing, blood, urine and fecal samples were collected up to 8-hour post dose (groups 1, 3, 5, and 7) or 24-hour post dose (groups 2, 4, 6, and 8). Brain tissue was collected at 8 hours or 24 hours, following the 8 hour or 24-hour urine and feces sample collection. Plasma, urine, feces, and brain tissue concentrations of the analytes were determined by LC-MS/MS. Plasma pharmacokinetic parameters were determined using WinNonlin (v8.0) software.
Plasma, urine, feces, and brain tissue samples were extracted and analyzed using the methods described as follows.
Analytical stock solutions (1.00 mg/mL of the free drug) were prepared in DMSO. Sample Homogenization Brain tissue and feces samples were homogenized with a Virsonic 100 ultrasonic homogenizer. Each brain tissue sample was first weighed, and then an appropriate volume of 20:80 methanol:water was added to make a 2 mL/gram sample. Samples were then homogenized on ice, and stored frozen until analysis. Feces samples were homogenized with 20:80 MeOH:water (8 mL/gram of tissue) prior to extraction. Standard Preparation (Plasma, Urine, and Brain) Standards were prepared in rat plasma containing sodium heparin as the anticoagulant, or in blank tissue homogenate. Working solutions were prepared in 50:50 acetonitrile:water. Working solutions were then added to blank matrix to make calibration standards to final concentrations of 1000, 500, 250, 100, 75.0, 50.0, 25.0, and 10 ng/mL. Standards were treated identically to the study samples. Sample Extraction (Plasma, Urine, Feces, and Brain) Plasma, urine, feces, and brain tissue samples were manually extracted via acetonitrile precipitation in a 96-well plate. Urine samples were diluted a minimum of 5-fold into blank rat plasma prior to extraction. Diluted urine samples were quantified against the rat plasma calibration curve. Brain and feces tissue homogenates were quantified against calibration curves prepared in matched blank tissue homogenate.

[1] = rat, in vivo, po, animals given the control formulation, rats
[2] = rat, plasma, po, animals given the control formulation, rats
[3] = rat, plasma, po, test animals (disclosed test formulation), rats

| concentration at 1 h [2] | concentration at 2 h [2] | concentration at 1 h [3] | concentration at 2 h [3] | plasma concentration with disclosed compositions versus control formulations (rat, in vivo, po) | SMILES | concentration at 1 h [1] | concentration at 2 h [1] | concentration at 2 h (rat, in vivo, po, test animals (disclosed test formulation), rats) | plasma concentration with disclosed compositions versus control formulations (oral, rats, disclosed formulation compared with control formulation) |
| --- | --- | --- | --- | --- | --- | --- | --- | --- | --- |
| – | – | – | – | – | CC(C)CN(C[C@@H](O)[C@H](Cc1ccccc1)NC(=O)O[C@H]1CO[C@H]2OCC[C@H]21)S(=O)(=O)c1ccc(N)cc1 [darunavir] | ~185 ng/mL | ~63 ng/mL | ~153 ng/mL | double the plasma concentration |
| ~139 ng/mL | ~117 ng/mL | ~133 ng/mL | ~142 ng/mL | higher levels than control formulations | O=C1Nc2ccc(Cl)cc2[C@@](C#CC2CC2)(C(F)(F)F)O1 [efavirenz] | – | – | – | – |
